# Values of other authors as cited in US20160177324A1, “NOVEL PROTEIN AND GENE RELATED TO FLAVONOID O-METHYLTRANSFERASE (FOMT) AND THEIR USES THEREFORE” (INSTITUTE OF BOTANY, THE CHINESE ACADEMY OF SCIENCES, priority 2013, published 2016).
# Test system: cyanidin 3-glucoside 3′-O-methyltransferase (CGMT)
# Settings: partially purified from Vitis vinifera cell suspension; Bailly et al. 1997; cited from earlier work
smiles,measurement,value
O=C(/C=C/c1ccc(O)cc1)OC[C@H]1O[C@@H](Oc2cc3c(O)cc(=O)cc-3oc2-c2ccc(O)c(O)c2)[C@H](O)[C@@H](O)[C@@H]1O [cyanidin 3-p-coumaroyl glucoside],activity of CGMT with substrate,no activity
